In ChEMBL document CHEMBL1154188, “Kinase inhibitor data modeling and de novo inhibitor design with fragment approaches” (J Med Chem, 2009):

Key:
[1] = molecular target: T1, Serine/threonine-protein kinase Chk2 (Homo sapiens, UniProt O96017); experiment: Inhibition of recombinant CHK2 by [gamma-33P]ATP based assay
[2] = molecular target: T1, Serine/threonine-protein kinase Chk2; experiment: Inhibition of recombinant CHK2 at 20 uM by [gamma-33P]ATP based assay
[3] = molecular target: Rho-associated protein kinase 2 (Homo sapiens) (UniProt O75116); experiment: Inhibition of recombinant ROCK2 at 20 uM by [gamma-33P]ATP based assay
[4] = molecular target: T2, Hepatocyte growth factor receptor (Homo sapiens, UniProt P08581); experiment: Inhibition of recombinant MET by [gamma-33P]ATP based assay
[5] = molecular target: Receptor-type tyrosine-protein kinase FLT3 (Homo sapiens) (UniProt P36888); experiment: Inhibition of recombinant FLT3 at 20 uM by [gamma-33P]ATP based assay
[6] = molecular target: Ribosomal protein S6 kinase beta-1 (Homo sapiens) (UniProt P23443); experiment: Inhibition of recombinant P70S6K at 20 uM by [gamma-33P]ATP based assay
[7] = molecular target: T2, Hepatocyte growth factor receptor; experiment: Inhibition of recombinant MET at 20 uM by [gamma-33P]ATP based assay
[8] = molecular target: Tyrosine-protein kinase ABL1 (Homo sapiens) (UniProt P00519); experiment: Inhibition of recombinant ABL1 at 20 uM by [gamma-33P]ATP based assay

Chain of Rho-associated protein kinase 2 (Homo sapiens) (O75116 whole entry, looked up): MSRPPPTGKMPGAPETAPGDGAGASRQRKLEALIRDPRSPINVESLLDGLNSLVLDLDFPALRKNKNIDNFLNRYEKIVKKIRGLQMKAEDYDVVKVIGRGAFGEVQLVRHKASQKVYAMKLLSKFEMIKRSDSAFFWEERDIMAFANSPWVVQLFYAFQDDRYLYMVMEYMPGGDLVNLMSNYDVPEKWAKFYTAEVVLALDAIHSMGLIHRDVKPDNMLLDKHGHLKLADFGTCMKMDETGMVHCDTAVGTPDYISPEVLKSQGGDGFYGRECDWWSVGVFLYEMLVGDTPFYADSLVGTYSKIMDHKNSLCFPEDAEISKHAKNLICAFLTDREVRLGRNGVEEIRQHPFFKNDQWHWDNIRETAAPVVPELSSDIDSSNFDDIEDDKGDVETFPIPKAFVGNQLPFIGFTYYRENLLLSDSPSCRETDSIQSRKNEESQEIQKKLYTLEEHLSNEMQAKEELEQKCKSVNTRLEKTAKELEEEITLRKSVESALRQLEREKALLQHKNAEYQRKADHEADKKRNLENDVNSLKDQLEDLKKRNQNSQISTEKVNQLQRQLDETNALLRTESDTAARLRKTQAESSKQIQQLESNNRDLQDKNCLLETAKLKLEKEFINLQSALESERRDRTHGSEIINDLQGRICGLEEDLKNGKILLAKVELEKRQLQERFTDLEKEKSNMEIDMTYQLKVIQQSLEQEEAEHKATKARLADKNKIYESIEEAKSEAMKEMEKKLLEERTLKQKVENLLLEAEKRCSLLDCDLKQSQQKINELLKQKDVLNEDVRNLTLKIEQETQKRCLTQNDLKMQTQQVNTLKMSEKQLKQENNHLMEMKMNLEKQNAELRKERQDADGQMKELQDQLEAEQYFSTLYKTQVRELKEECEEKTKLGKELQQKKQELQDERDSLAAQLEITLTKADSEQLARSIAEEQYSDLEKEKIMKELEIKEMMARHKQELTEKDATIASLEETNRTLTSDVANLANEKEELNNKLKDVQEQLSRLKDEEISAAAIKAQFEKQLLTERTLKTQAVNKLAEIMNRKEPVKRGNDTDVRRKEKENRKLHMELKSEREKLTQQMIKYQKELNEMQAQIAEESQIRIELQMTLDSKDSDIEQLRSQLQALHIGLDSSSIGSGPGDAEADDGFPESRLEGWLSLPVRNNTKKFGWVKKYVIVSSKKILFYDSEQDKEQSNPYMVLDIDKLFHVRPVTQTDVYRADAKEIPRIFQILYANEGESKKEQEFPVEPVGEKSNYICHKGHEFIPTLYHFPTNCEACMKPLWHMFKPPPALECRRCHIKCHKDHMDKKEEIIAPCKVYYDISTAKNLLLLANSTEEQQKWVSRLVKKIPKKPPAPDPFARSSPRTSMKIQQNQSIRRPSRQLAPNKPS
T2 sequence (P08581 whole entry): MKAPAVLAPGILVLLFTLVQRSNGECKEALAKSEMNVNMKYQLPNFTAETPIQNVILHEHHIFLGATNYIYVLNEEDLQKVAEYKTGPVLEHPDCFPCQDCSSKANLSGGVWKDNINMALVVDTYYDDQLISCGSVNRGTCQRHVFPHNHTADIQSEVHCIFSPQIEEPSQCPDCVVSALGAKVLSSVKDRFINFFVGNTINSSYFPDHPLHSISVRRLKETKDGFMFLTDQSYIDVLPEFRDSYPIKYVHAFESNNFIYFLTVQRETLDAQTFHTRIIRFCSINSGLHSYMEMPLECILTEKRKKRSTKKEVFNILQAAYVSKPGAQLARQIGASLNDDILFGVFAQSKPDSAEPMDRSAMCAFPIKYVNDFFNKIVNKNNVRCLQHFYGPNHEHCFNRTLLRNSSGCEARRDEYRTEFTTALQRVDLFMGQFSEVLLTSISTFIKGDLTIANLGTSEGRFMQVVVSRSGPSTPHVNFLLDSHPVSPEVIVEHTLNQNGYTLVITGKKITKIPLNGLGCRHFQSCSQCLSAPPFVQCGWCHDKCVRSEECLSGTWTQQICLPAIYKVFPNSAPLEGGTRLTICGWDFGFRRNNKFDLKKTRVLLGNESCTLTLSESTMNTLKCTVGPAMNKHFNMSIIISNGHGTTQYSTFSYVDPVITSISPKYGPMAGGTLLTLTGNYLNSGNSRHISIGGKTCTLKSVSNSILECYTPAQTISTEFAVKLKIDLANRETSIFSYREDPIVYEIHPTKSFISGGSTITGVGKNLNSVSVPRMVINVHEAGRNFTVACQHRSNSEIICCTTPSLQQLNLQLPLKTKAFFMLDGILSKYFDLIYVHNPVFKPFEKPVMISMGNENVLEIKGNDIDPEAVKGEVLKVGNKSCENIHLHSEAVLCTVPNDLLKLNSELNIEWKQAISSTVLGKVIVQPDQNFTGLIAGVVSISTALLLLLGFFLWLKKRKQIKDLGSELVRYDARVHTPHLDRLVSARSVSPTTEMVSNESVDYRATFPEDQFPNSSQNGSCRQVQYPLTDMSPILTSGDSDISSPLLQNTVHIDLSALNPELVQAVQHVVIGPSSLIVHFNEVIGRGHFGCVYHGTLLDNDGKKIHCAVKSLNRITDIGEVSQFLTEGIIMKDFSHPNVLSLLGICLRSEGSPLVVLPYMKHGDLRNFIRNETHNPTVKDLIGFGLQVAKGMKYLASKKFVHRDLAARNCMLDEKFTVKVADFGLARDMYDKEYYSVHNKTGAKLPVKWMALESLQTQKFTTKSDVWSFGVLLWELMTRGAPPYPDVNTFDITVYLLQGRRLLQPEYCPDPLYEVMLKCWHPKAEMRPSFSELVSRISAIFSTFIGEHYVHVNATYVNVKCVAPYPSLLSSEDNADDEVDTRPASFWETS
T1 sequence (O96017 whole entry): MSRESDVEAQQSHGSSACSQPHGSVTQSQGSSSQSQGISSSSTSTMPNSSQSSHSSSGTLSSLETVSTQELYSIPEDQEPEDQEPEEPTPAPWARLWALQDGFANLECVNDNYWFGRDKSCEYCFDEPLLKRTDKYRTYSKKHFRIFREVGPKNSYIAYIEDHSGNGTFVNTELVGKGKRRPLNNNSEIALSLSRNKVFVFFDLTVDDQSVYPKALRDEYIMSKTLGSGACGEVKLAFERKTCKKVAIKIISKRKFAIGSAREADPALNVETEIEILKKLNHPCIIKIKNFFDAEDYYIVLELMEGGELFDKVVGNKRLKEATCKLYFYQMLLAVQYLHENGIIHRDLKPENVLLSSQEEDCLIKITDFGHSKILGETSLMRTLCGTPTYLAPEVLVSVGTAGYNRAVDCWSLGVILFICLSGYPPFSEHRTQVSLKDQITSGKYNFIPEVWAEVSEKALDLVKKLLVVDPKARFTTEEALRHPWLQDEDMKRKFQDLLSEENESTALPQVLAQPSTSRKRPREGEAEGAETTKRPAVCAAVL
Chain of Receptor-type tyrosine-protein kinase FLT3 (Homo sapiens) (P36888 whole entry): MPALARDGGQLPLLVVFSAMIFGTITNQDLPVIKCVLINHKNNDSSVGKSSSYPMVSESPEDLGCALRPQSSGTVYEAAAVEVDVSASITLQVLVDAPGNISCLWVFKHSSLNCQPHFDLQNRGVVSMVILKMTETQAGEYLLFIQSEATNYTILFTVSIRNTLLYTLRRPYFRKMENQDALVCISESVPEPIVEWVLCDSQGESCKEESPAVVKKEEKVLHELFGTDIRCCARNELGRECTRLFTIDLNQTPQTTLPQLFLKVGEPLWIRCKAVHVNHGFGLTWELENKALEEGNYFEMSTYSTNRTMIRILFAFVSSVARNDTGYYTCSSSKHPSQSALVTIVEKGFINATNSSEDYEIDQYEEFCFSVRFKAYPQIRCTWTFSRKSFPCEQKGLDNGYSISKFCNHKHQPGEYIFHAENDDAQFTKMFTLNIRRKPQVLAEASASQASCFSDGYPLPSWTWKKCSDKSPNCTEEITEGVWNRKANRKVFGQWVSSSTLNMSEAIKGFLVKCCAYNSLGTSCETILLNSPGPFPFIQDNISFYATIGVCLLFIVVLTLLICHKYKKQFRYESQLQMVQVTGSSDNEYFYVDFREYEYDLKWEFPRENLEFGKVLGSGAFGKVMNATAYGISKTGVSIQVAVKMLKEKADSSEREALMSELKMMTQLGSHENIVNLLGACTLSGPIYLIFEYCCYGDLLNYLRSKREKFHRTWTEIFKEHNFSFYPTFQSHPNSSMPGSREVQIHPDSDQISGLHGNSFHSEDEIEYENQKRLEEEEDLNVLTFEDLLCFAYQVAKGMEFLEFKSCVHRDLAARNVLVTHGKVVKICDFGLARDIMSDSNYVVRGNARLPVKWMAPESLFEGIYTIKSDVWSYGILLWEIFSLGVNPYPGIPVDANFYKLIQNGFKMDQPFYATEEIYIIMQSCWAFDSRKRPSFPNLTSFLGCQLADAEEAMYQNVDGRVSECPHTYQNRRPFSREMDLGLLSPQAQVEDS
Chain of Ribosomal protein S6 kinase beta-1 (Homo sapiens) (P23443 whole entry, looked up): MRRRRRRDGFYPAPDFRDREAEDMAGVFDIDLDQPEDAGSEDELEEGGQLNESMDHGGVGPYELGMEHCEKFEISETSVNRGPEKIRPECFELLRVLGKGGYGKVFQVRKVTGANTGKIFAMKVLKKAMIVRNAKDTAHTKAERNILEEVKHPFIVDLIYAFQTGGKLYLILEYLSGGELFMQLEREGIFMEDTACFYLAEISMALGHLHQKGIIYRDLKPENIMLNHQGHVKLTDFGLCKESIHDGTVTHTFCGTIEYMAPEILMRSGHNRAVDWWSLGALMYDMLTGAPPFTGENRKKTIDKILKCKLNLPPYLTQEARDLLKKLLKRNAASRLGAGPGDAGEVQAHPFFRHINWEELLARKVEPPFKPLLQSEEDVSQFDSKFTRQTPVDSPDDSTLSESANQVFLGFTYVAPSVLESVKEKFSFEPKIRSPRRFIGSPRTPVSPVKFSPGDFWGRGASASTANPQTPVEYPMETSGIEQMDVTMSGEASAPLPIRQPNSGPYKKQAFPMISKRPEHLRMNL

| IC50 [1] | inhibition [2] | inhibition [3] | IC50 [4] | inhibition [5] | inhibition [6] | inhibition [7] | inhibition [8] | Compound |
| --- | --- | --- | --- | --- | --- | --- | --- | --- |
| 890 nM | 98% | 98% | 7090 nM | 99% | 101% | 65% | 81% | Nc1ncc(-c2ccc(C(=O)NCC3CCCNC3)cc2)nc1Oc1ccc2cc[nH]c2c1 (stereo unspecified) |
| 1120 nM | 97% | 98% | 3330 nM | 94% | 92% | 96% | 94% | Nc1ncc(-c2ccc(C(=O)NCC3CCNCC3)cc2)nc1Oc1ccc2cc[nH]c2c1 |
| 800 nM | 98% | 99% | 5520 nM | 102% | 98% | 73% | 85% | Nc1ncc(-c2ccc(C(=O)NC3CCNCC3)cc2)nc1Oc1ccc2cc[nH]c2c1 |
| 610 nM | 96% | 37% | 13700 nM | 86% | 100% | 65% | 84% | Nc1ncc(-c2ccc(C(=O)N[C@@H]3CCNC3)cc2)nc1Oc1ccc2cc[nH]c2c1 |
| 580 nM | 98% | 98% | 3550 nM | 93% | 89% | 75% | 87% | Nc1ncc(-c2ccc(C(=O)NCC3CCNC3)cc2)nc1Oc1ccc2cc[nH]c2c1 (stereo unspecified) |
| 1130 nM | 60% | 42% | 1210 nM | 61% | 45% | 53% | 11% | CC(Oc1nc(-c2ccc(C(=O)NCC3CCCNC3)cc2)cnc1N)c1c(Cl)cccc1Cl (stereo unspecified) |
| 960 nM | 98% | 97% | 4270 nM | 100% | 86% | 77% | 87% | Nc1ncc(-c2ccc(C(=O)NCC3CCCN3)cc2)nc1Oc1ccc2cc[nH]c2c1 (stereo unspecified) |
